Measurements: US20250213494A1, “METHODS AND COMPOSITIONS FOR POTENTIATION OF A LIGAND” (priority 2022, published 2025)

Test system: RXFP1 gene expression in human fibroblast like synoviocytes
Assay: RXFP1 gene expression by qPCR after corticosteroid treatment under fibrotic conditions
Type: cell-based
Settings: qPCR (FIG. 3)
Source text: RXFP1 gene expression after treatment with (left) dexamethasone, (middle) methylprednisolone, and (right) cortisone under fibrotic conditions.

C[C@]12CCC(=O)C=C1CC[C@@H]1[C@@H]2C(=O)C[C@@]2(C)[C@H]1CC[C@]2(O)C(=O)CO [cortisone]
RXFP1 gene expression: increases RXFP1 gene expression
